What was measured:
[1] = Cytotoxicity against human solid tumor cells assessed as growth inhibition; assay type: functional
[2] = Half life in patient at 25 to 50 mg, administered as single dose; assay type: ADME, organism-based; conditions: human, in vivo
[3] = Cytotoxicity against human hematopoietic malignant cells assessed as growth inhibition; assay type: functional
[4] = Cmax in patient at 32.5 mg, po administered as single dose; assay type: ADME, organism-based; parameters: dose 32.5 mg, route oral; conditions: human, in vivo
[5] = AUC in patient at 32.5 mg, po administered as single dose; assay type: ADME, organism-based; conditions: human, in vivo

## Nc1cc(F)ccc1NC(=O)c1ccc(CNC(=O)/C=C/c2cccnc2)cc1 [TUCIDINOSTAT]
[1]
  GI50: 6.65 µM
[2]
  half-life: 24 h
[3]
  GI50: 1.86 µM
[4]
  Cmax: 312 nM
[5]
  AUC: 2.24 µM·h
